In publication PMC9981747, “A covalent BTK ternary complex compatible with targeted protein degradation” (Nature Communications, 2023):
pKd: −log10 of the molar value. Several values for one entry are separate records, joined by “and”; a condition that tells them apart may be missing. Equal values may be shown once.

Assays:
BTK^T474I-C481S = target: T1, BTK^T474I-C481S (Homo sapiens, UniProt Q06187+Q13490, C481S/T474I); test: Expi293 dose-dependent degradation of BTK double mutant; type: cell-based; conditions: Expi293 with cIAP1^FL
T1 construct: we used a full-length BTK (aa1-659) with a C terminal Tobacco Etch Virus protease (TEV) site; expressed in transfected cells; host or cells: Expi293 (HEK293)
Protocol: (§1) Gibco Expi293 cell line Transfection Kit (Cat.# A14524) was cultured according to the manufacturers conditions. Cells were grown at 37 °C with 5% CO2 to 4 × 10^6 cells/mL using an orbital shaker set to 95 RPM. Next cells were split to 2 × 10^6 cells/mL and transfected with plasmid DNA at a 1 µg/mL final concentration in Optimem (Gibco 31985070) using the Expifectamine 293 transfection reagent according to manufacturer’s conditions. After approximately 18 h, enhancers 1 and 2 (provided with kit). Viability was typically about 85%. When cIAP1^FL was transfected, it was detected via α-cIAP1 antibody there was typically some autoubiquitination detected, and thus often appeared as a laddered or smeared band via western blotting. When BTK^FL variants were transfected, they were detected using anti-BTK antibody (D3H5).
(§2) For dose-dependent degradation assays, cells were plated in a 24-well format and placed on a separate orbital shaker set to 115 RPM. […] Clarified lysate was harvested and quantified using a Pierce BCA Assay Kit (Cat. #23225), and 20 µg of the sample was loaded into a 4–15% Criterion TGX gel (Bio-Rad, 5678085) and transferred to a nitrocellulose membrane (Life Technologies Cat. #IB23001) using an iBlot 2 (Life Technologies Cat. #IB21001). Proteins were detected using an iBind system (Life Technologies SLF2020). […]

BTK^T474I = target: T2, BTK^T474I (Homo sapiens, UniProt Q06187+Q13490, T474I); test: Expi293 dose-dependent degradation of BTK gatekeeper mutant; type: cell-based; conditions: Expi293 with cIAP1^FL
T2 construct: we used a full-length BTK (aa1-659) with a C terminal Tobacco Etch Virus protease (TEV) site; expressed in transfected cells; host or cells: Expi293 (HEK293)
Protocol: as §1, §2

cIAP1^BUCR1 = cIAP1^BUCR1 (Homo sapiens, UniProt Q13490); test: biochemical
Protocol: Experiments were performed on a Biacore^TM 8k instrument (GE Healthcare). Biotinylated cIAP1^Bir3 was captured onto a streptavidin sensor chip to levels ranging from 3000–4000 RU. Compound binding experiments were performed in 10 mM HEPES, pH 7.5, 150 mM NaCl, 0.02% BSA, 0.01% P20, and 2% DMSO at 25 °C. Experiments were carried out with n = 4 at 6 concentrations, with the highest concentration of 37 nM and subsequent 3-fold dilutions. BCCov was injected at a flow rate of 30 µL/min, total contact time of 120 s, and dissociation times of 5000 s, using the Single Cycle Kinetics experiment. Binding responses were processed using the Biacore 8k software to zero, x-align, double reference, and correct for excluded volume effects of DMSO in the data.

BTK^FL [1] = target: T3, BTK^FL (Homo sapiens, UniProt Q06187+Q13490); test: Tetracycline-inducible (T-REx) cIAP1^FL degradation of pre-formed BTK^FL~BCCov in Expi293; type: cell-based; conditions: pre-formed BTK^FL~BCCov (20 µM, 18 h), then tetracycline induction of cIAP1^FL
T3 construct: we used a full-length BTK (aa1-659) with a C terminal Tobacco Etch Virus protease (TEV) site; expressed in transfected cells; host or cells: Expi293 (HEK293)
Protocol: For assays involving inducible cIAP1 expression, 18 h after compound treatment cells were treated with a final concentration of 1.0 µg/mL tetracycline (Teknova Cat. #T3325) and shaken for another 18 h. These samples were processed for western blotting as detailed above. Washout condition consisted of 4 × 10 mL PBS resuspension, centrifugation, and removal repeated for four cycles before resuspension in cellular media.

BTK^FL-C481S = target: T4, BTK^FL-C481S (Homo sapiens, UniProt Q06187, C481S); test: Covalent modification of BTK^FL-C481S in Expi293 cells, intact mass spectrometry; type: cell-based; conditions: 20 µM
T4 construct: we used a full-length BTK (aa1-659) with a C terminal Tobacco Etch Virus protease (TEV) site; expressed in transfected cells; host or cells: Expi293 (HEK293)
Protocol: For covalent modification detection assays, the compound was added to Expi293 cells after enhancer treatment. At each timepoint 10 mL of cells were harvested, rapidly cooled to 4 °C in an ice bath, and centrifuged at 100 x g at 4 °C for 5 min. The pellet was washed twice with ice-cold PBS, snap-frozen in liquid nitrogen, and stored at −80 °C. Each pellet was resuspended in 0.1 mL ice-cold RIPA Buffer supplemented with 40 µM BCNC (to outcompete any remaining BCCov), protease inhibitor, and benzonase, and sonicated with 10 brief blasts at power 20. Lysate was centrifuged at 15 K x g for 20 min at 4 °C and prepared for western blotting as detailed above. When samples were evaluated for covalent adduct formation, a purification step was required. Briefly, the ~1 mL of clarified lysate was added to 9 mL of FLAG binding buffer (25 mM HEPES 7.5, 300 mM NaCl, 10% glycerol). […]
Each sample was analyzed using intact mass spectrometry under denaturing conditions using an Agilent 6530 QToF Mass Spectrometer coupled with an Agilent Infinity 1290 UPLC chromatography system. Spectra were analyzed using ChemLaunch v1.6.8 (Healex Systems), Mass Hunter V7.0 (Agilent Technologies), and BioConfirm v8.0 (Agilent Technologies). For all proteins analyzed, approximately 2 μl of 0.1–0.4 mg/ml protein sample was added to 8 μl 0.2% trifluoroacetic acid (TFA) (Sigma T6508–100 mL). […]

BTK^FL [2] = target: T5, BTK^FL (Homo sapiens, UniProt Q06187); test: Covalent modification of BTK^FL in Expi293 cells without cIAP1, immunopurification and intact mass spectrometry; type: cell-based; conditions: for Cov Form Over Time (% covalent bond formation): 5 µM, no exogenous cIAP1, replicates; for BTK^FL covalently modified: 18 h, n = 1
T5 construct: we used a full-length BTK (aa1-659) with a C terminal Tobacco Etch Virus protease (TEV) site; expressed in transfected cells; host or cells: Expi293 (HEK293)
Protocol: For covalent modification detection assays, the compound was added to Expi293 cells after enhancer treatment. At each timepoint 10 mL of cells were harvested, rapidly cooled to 4 °C in an ice bath, and centrifuged at 100 x g at 4 °C for 5 min. The pellet was washed twice with ice-cold PBS, snap-frozen in liquid nitrogen, and stored at −80 °C. Each pellet was resuspended in 0.1 mL ice-cold RIPA Buffer supplemented with 40 µM BCNC (to outcompete any remaining BCCov), protease inhibitor, and benzonase, and sonicated with 10 brief blasts at power 20. Lysate was centrifuged at 15 K x g for 20 min at 4 °C and prepared for western blotting as detailed above. When samples were evaluated for covalent adduct formation, a purification step was required. Briefly, the ~1 mL of clarified lysate was added to 9 mL of FLAG binding buffer (25 mM HEPES 7.5, 300 mM NaCl, 10% glycerol). These samples were incubated with 250 µL of anti-FLAG M2 affinity resin (Millipore-Sigma Cat. # A2220) for 3 h at 4 °C with gentle nutation. Samples were washed via gravity column filtration and eluted with 0.2 mg/ml FLAG Peptide (DYKDDDDK, CPC Scientific Peptide Company). Each sample was concentrated to 0.1 mg/mL using an Amicon Ultra-15 Centrifugal filter with a 50 kDa MWCO (Millipore-Sigma Cat. # UFC905024). Details on mass spectrometry analysis are below.
Each sample was analyzed using intact mass spectrometry under denaturing conditions using an Agilent 6530 QToF Mass Spectrometer coupled with an Agilent Infinity 1290 UPLC chromatography system. Spectra were analyzed using ChemLaunch v1.6.8 (Healex Systems), Mass Hunter V7.0 (Agilent Technologies), and BioConfirm v8.0 (Agilent Technologies). For all proteins analyzed, approximately 2 μl of 0.1–0.4 mg/ml protein sample was added to 8 μl 0.2% trifluoroacetic acid (TFA) (Sigma T6508–100 mL). Subsequently, 5 μl of each sample was injected onto the instrument. Depending on the resolution, the amount of protein loaded was altered. Theoretical versus observed molecular weight is presented in Supplementary Table 1. While we have not experimentally determined the post-translational modifications (PTMs) resulting in observed molecular weight, we believe a loss of methionine and acetylation are likely. Variations between theoretical and observed masses may also be due to the resolution of the deconvoluted spectra leading to imperfect peak identification, particularly for a protein with heterogeneous phosphorylation states. Variation of several Daltons is observed between biological replicates and individual experiments.

T5 sequence (Q06187 whole entry, the tested form may be a part): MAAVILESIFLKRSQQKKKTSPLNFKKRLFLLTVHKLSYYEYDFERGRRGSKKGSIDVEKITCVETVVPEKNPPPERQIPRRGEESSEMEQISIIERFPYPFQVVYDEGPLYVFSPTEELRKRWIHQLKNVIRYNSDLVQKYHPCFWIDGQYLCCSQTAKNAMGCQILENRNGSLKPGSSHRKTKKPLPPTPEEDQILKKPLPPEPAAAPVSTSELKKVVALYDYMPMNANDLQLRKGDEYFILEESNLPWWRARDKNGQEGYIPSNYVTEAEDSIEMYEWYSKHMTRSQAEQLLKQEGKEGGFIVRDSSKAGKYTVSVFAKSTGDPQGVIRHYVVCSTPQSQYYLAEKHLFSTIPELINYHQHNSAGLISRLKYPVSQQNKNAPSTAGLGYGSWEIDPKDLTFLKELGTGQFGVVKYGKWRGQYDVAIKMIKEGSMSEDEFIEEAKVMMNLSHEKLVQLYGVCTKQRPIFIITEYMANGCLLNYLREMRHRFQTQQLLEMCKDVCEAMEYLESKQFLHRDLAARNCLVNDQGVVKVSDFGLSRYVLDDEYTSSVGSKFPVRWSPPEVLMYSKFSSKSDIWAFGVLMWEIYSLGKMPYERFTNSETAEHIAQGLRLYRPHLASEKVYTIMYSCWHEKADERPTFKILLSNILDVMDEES
T1 sequence (Q06187 whole entry T474I/C481S, the tested form may be a part): as the sequence (Q06187 whole entry, the tested form may be a part) above, with T474I, C481S counted along it
T1 sequence (Q13490 whole entry, the tested form may be a part): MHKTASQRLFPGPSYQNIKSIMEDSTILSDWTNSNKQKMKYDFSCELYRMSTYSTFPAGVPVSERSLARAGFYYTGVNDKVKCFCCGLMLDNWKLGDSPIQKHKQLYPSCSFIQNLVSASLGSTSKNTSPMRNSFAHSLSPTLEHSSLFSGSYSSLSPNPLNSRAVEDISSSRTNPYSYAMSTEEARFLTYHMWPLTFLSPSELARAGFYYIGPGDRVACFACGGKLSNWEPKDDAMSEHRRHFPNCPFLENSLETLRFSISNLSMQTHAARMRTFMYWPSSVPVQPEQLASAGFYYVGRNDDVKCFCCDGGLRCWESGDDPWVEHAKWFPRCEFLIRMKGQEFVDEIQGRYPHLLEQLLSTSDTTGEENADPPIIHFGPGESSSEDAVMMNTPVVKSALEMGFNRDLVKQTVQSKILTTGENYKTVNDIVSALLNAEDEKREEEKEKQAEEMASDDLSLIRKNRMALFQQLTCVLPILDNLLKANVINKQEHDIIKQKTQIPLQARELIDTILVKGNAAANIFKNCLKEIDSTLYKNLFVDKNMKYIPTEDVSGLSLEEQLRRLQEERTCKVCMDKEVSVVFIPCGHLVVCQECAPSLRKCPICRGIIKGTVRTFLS
T3 sequence (Q06187 whole entry, the tested form may be a part): as the sequence (Q06187 whole entry, the tested form may be a part) above
T3 sequence (Q13490 whole entry, the tested form may be a part): as the sequence (Q13490 whole entry, the tested form may be a part) above
T2 sequence (Q06187 whole entry T474I, the tested form may be a part): as the sequence (Q06187 whole entry, the tested form may be a part) above, with T474I counted along it
T2 sequence (Q13490 whole entry, the tested form may be a part): as the sequence (Q13490 whole entry, the tested form may be a part) above
T4 sequence (Q06187 whole entry C481S, the tested form may be a part): as the sequence (Q06187 whole entry, the tested form may be a part) above, with C481S counted along it
Chain of cIAP1^BUCR1 (Q13490 260-618): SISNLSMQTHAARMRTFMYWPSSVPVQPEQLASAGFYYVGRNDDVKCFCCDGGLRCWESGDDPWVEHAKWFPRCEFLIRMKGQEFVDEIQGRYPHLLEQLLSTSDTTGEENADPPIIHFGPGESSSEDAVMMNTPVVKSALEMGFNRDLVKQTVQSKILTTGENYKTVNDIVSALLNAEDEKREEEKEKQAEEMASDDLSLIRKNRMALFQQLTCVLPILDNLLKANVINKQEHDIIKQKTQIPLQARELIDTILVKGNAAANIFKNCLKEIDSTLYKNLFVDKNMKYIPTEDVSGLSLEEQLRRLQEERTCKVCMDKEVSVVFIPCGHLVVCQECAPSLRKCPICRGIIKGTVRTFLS

Q: Which “degradation of BTK^T474I-C481S” value (BTK^T474I-C481S) does the source give for `CNC(C)C(=O)NC(C(=O)N1CC(NC(=O)COCCN2CCN(CC=CC(=O)N3CCCC(n4nc(-c5ccc(Oc6ccccc6)cc5)c5c(N)ncnc54)C3)CC2)CC1C(=O)NC1CCCc2ccccc21)C1CCCCC1` (centres unmarked) [BCCov] here?
A: Its value is “loss of activity”.

Q: And the “degradation of BTK^T474I” value (BTK^T474I)?
A: Its value is “loss of activity”.

Q: What about the pKd (cIAP1^BUCR1) of the same compound?
A: The pKd was at least 8.00.

Q: And the Dmax (BTK^FL [1])?
A: Its Dmax is about 70%.

Q: And the “covalent adduct formation on BTK^FL-C481S” value (BTK^FL-C481S)?
A: The value was “no similar adduct”.

Q: What about the “Cov Form Over Time (% covalent bond formation)” value (BTK^FL [2]; 0.5 h) of the same compound?
A: Its value is 5.67% and 6.21% and 5.89%.

Q: And the “Cov Form Over Time (% covalent bond formation)” value (BTK^FL [2]; 1 h)?
A: Its value is 8.64% and 10.21% and 9.49%.

Q: What about the “Cov Form Over Time (% covalent bond formation)” value (BTK^FL [2]; 2 h) of the same compound?
A: The value was 14.47% and 13.21% and 14.33%.

Q: And the “Cov Form Over Time (% covalent bond formation)” value (BTK^FL [2]; 3.5 h)?
A: The value was 19.26% and 19.25% and 19.86%.

Q: What about the “Cov Form Over Time (% covalent bond formation)” value (BTK^FL [2]; 5.5 h) of the same compound?
A: The value was 31.90% and 34.21% and 30.28%.

Q: What about the “Cov Form Over Time (% covalent bond formation)” value (BTK^FL [2]; 7 h) of the same compound?
A: The value was 34.24% and 36.81% and 34.22%.

Q: What about the “Cov Form Over Time (% covalent bond formation)” value (BTK^FL [2]; 17 h) of the same compound?
A: Its value is 33.97% and 36.13% and 34.85%.

Q: What about the “BTK^FL covalently modified” value (BTK^FL [2]; 5 uM) of the same compound?
A: Its value is 35.00%.

Q: What about the “BTK^FL covalently modified” value (BTK^FL [2]; 10 uM) of the same compound?
A: The value was 64.70%.

Q: And the “BTK^FL covalently modified” value (BTK^FL [2]; 15 uM)?
A: The value was 77.49%.

Q: And the “BTK^FL covalently modified” value (BTK^FL [2]; 30 uM)?
A: The value was 94.20%.

Q: And the “time that the level of covalent modification remains stable post-treatment” value (BTK^FL [2]; single dose 20 µM)?
A: Its value is “at least 48 h”.
